Key:
[1] = system: Bscl2-GFP and Rtkn-GFP mES reporter cell lines; experiment: ToxTracker genotoxicity assay, overall conclusion; settings: positive: >=2-fold induction; weakly positive: >1.5 and <2-fold; negative: <=[…] at 10, 25 and 50% cytotoxicity, with and without S9
Procedure: A 2 L four-necked flask equipped with a thermometer and overhead stirrer was charged with sodium lauryl sulphate (30% solids in water, 18.6 grams of solution) and demineralized water (711 grams). The reactor phase was placed under N2 atmosphere and heated to 82° C. A mixture of demineralized water (112 grams), sodium lauryl sulphate (30% solids in water, 37.2 grams of solution), methyl methacrylate (209.3 grams), n-butyl acrylate (453.56 grams) and methacrylic acid (34.88 grams) was placed in a large feeding funnel and emulsified with an overhead stirrer (monomer feed). Ammonium persulphate (1.75 grams) was dissolved in demineralized water (89.61 grams) and placed in a small feeding funnel (initiator feed). Ammonium persulphate (1.75 grams) was dissolved in demineralized water (10.5 grams), and this solution was added to the reactor phase. Immediately afterwards, 5% by volume of the monomer feed was added to the reactor phase. The reaction mixture then exothermed to 85° C. and was kept at 85° C. for 5 minutes. Then, the residual monomer feed and the initiator feed were fed to the reaction mixture over 90 minutes, maintaining a temperature of 85° C. […] Metabolic was evaluated by addition of S9 liver extract. […] Only GFP expression in intact single cells is determined. […]

[2] = system: Rtkn-GFP mouse embryonic stem (mES) reporter cell line; experiment: ToxTracker genotoxicity assay, Rtkn-GFP reporter induction
Procedure: A 2 L four-necked flask equipped with a thermometer and overhead stirrer was charged with sodium lauryl sulphate (30% solids in water, 18.6 grams of solution) and demineralized water (711 grams). The reactor phase was placed under N2 atmosphere and heated to 82° C. A mixture of demineralized water (112 grams), sodium lauryl sulphate (30% solids in water, 37.2 grams of solution), methyl methacrylate (209.3 grams), n-butyl acrylate (453.56 grams) and methacrylic acid (34.88 grams) was placed in a large feeding funnel and emulsified with an overhead stirrer (monomer feed). Ammonium persulphate (1.75 grams) was dissolved in demineralized water (89.61 grams) and placed in a small feeding funnel (initiator feed). Ammonium persulphate (1.75 grams) was dissolved in demineralized water (10.5 grams), and this solution was added to the reactor phase. Immediately afterwards, 5% by volume of the monomer feed was added to the reactor phase. The reaction mixture then exothermed to 85° C. and was kept at 85° C. for 5 minutes. Then, the residual monomer feed and the initiator feed were fed to the reaction mixture over 90 minutes, maintaining a temperature of 85° C. After completion of the feeds, the monomer feed funnel was rinsed with demineralized water (18.9 grams) and reaction temperature maintained at 85° C. for 45 minutes. Subsequently, the mixture was cooled to room temperature and brought to pH=7.2 with ammonia solution (6.25 wt. % in demineralized water), and brought to 40% solids with further demineralized water. […] This methodology uses a two step-approach. […] Metabolic was evaluated by addition of S9 liver extract. […] Only GFP expression in intact single cells is determined. […] Components and Abbreviations Used: Dimethylformamide (CAS No. 68-12-2) was obtained from Acros Organics (a division of Thermo Fisher Scientific). […] IPDI (5-isocyanato-1-(isocyanatomethyl)-1,3,3-trimethylcyclohexane, Desmodur® I, isophorone diisocyanate, CAS No. 4098-71-9) was obtained from Covestro. Polyethylene Glycol Monomethyl Ether (CAS No. 9004-74-4) with a number average molecular weight of 1000 Da was obtained from Tokyo Chemical Industry Co., Ltd. Vestanat® T 1890/100, an isophorone diisocyanate based isocyanurate (CAS No. 67873-91-0) was obtained from Evonik. Desmodur® N3600 was obtained from Covestro. 1-methoxy-2-propanol acetate (propylene glycol methyl ether acetate, CAS No. 108-65-6) was obtained from Shell Chemicals. 1-(2-hydroxyethyl)ethyleneimine) (CAS No. 1072-52-2) was obtained from Tokyo Chemical Industry Co., Ltd. Jeffamine® XTJ-436 (CAS No. 118270-87-4) was obtained from Huntsman Bismuth neodecanoate (CAS No. 34364-26-6) obtained from TIB chemicals AG (Mannheim, Germany). Hydrazine (16% solution in water, CAS No. 302-01-2) was obtained from Honeywell. Dimethylol propionic acid (DMPA, CAS No. 4767-03-7) was obtained from Perstop Polyols. Triethylamine (TEA, CAS No. 121-44-8) was obtained from Arkema 1-propanol (CAS No. 71-23-8) was obtained from Sigma-Aldrich. Tin 2-ethylhexanoate (CAS No. 301-10-0) was obtained from Sigma-Aldrich. Dibutyltindilaurate (CAS No. 77-58-7) was obtained from Sigma-Aldrich. Tegomer® D3403 was obtained from Evonik. Polypropyleneglycol with a number average molecular weight of 1000 Da and with a number average molecular weight of 2000 Da was obtained from BASF. 3-Methyl-1-phenyl-2-phospholene-1-oxide (CAS No. 707-61-9) was obtained from Sigma-Aldrich. 1-Butanol (CAS No. 71-36-3) was obtained from Sigma-Aldrich. Sodium lauryl sulphate (30% solution in water, CAS No. 73296-89-6) was obtained from BASF. Methyl methacrylate (CAS No. 80-62-6) was obtained from Lucite Int. n-Butyl acrylate (CAS No. 141-32-2) was obtained from Dow Chemical. Methacrylic acid (CAS No. 79-41-4) was obtained from Lucite Int. Ammonium persulphate (CAS No. 7727-54-0) was obtained from United Initiators. Ammonia (25% solution in water, CAS No. 1336-21-6) was obtained from Merck

In the case of `O=C(CCN1CC1)OCC(CO)(COC(=O)CCN1CC1)COC(=O)CCN1CC1` [Comparative Example 3, pentaerythritol tris(3-(1-aziridinyl)propionate)], the Genotoxicity test conclusion [1] is reported as “genotoxic”.
`O=C(NCCCCCCn1c(=O)n(CCCCCCNC(=O)OCCN2CC2)c(=O)n(CCCCCCNC(=O)OCCN2CC2)c1=O)OCCN1CC1` [compound 2] was tested, and the Genotoxicity test conclusion [1] was “genotoxic”, the Rtkn induction level ([2]; with S9 rat liver extract, 3 h exposure and 24 h recovery, at 10% cytotoxicity) was 2.0 fold and the Rtkn induction level ([2]; with S9 rat liver extract, 3 h exposure and 24 h recovery, at 25% cytotoxicity) was 3.4 fold. The Rtkn induction level ([2]; with S9 rat liver extract, 3 h exposure and 24 h recovery, at 50% cytotoxicity) was 3.0 fold, the Rtkn induction level ([2]; without S9 rat liver extract, 24 h exposure, at 10% cytotoxicity) was 1.7 fold and the Rtkn induction level ([2]; without S9 rat liver extract, 24 h exposure, at 25% cytotoxicity) was 2.4 fold. The Rtkn induction level ([2]; without S9 rat liver extract, 24 h exposure, at 50% cytotoxicity) was 2.8 fold.

— patent US12378190B2, “Two-component coating system” (COVESTRO (NETHERLANDS) B.V., priority 2020, dated 2025)
